Values quoted from earlier work as cited in patent US9781921B2, “Emulsifiable concentrate formulation” (Huntsman Corporation Australia Pty Limited, priority 2012, dated 2017).

System: mouse
Settings: summary of Table 2

In the case of `CC(=O)OCc1ccccc1` [Benzyl Acetate, benzyl acetate], the “Toxicity” value is listed as “relatively low toxicity”.
